Results on 48 compounds are retold here after patent US20260053794A1, “SOMATOSTATIN RECEPTOR 2 AGONISTS AND USES THEREOF” (Exelixis, Inc., priority 2022, published 2026).

The target of the assay is T1, Somatostatin Receptor 2 (SSTR2) (Homo sapiens, UniProt P30874).
T1 construct: expressed in transfected cells
T1 sequence (P30874 whole entry, species assumed): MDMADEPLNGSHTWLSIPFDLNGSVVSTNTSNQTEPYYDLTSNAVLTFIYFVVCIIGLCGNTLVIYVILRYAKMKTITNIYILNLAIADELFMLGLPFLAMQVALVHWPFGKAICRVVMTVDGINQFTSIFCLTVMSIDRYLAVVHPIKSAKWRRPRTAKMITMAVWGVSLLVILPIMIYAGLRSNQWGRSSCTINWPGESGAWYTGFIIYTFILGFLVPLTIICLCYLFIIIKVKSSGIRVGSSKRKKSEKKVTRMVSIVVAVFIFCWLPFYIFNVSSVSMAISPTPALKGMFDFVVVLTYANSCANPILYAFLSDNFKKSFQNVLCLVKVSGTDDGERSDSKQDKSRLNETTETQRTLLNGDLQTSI
Kind of assay: Biochemical Assay for Activation of Somatostatin Receptor 2 (SSTR2), Cisbio HTRF cAMP assay. The assay is classed as cell-based. Conditions: average pEC50; HTRF cAMP assay in stably-transfected cell line expressing SSTR2; cells incubated with compounds for 1-2h. On the procedure: Biochemical Assay for Activation of Somatostatin Receptor 2 (SSTR2)
Agonistic activation of SSTRs leads to an […] production of intracellular cAMP levels. Cisbio's homogeneous time-resolved fluorescence (HTRF) cAMP assay was used to measure cAMP concentration in an high-throughput format. Increase in intracellular cAMP concentrations was measuring using a stably-transfected cell line expressing SSTR2. Test compounds were dissolved in DMSO. Cells were incubated with compounds for 1-2h, and subsequently competitive binding of cAMP produced due to the activation of SSTR2 by the test compounds was measured using the Cisbio cAMP Gs dynamic assay system (Perkin Elmer, Bedford, MA).
The average pEC50 was determined for the test compounds.
Background: Time-resolved FRET reads energy transfer from a long-lived donor to a nearby acceptor.
As for `CO[C@@H]1CN(c2c(-c3cc(F)cc(F)c3)cnc3[nH]c(-c4ccc5[nH]c(=O)[nH]c5c4)nc23)CC[C@H]1N` [Compound 46, 5-(7-((3R,4R)-4-amino-3-methoxypiperidin-1-yl)-6-(3,5-difluorophenyl)-3H-imidazo[4,5-b]pyridin-2-yl)-1,3-dihydro-2H-benzo[d]imidazol-2-one], the EC50 was over 10000 nM.
With `CO[C@@H]1CN(c2c(-c3cc(F)cc(F)c3)cnc3[nH]c(-c4cc(F)cc(C(N)=O)c4)nc23)CC[C@H]1N` [Compound 47] the figure was 1000 nM; with `CO[C@@H]1CN(c2c(-c3cc(F)cc(F)c3)cnc3[nH]c(-c4cccc(C#N)c4O)nc23)CC[C@H]1N` [Compound 48], 501 nM; with `COc1cc(F)cc(-c2cnc3[nH]c(-c4ccc5[nH]c(=O)[nH]c5c4)nc3c2N2CC[C@@H](N)[C@H](OC)C2)c1` [Compound 49], over 10000 nM.
With `COc1cc(F)cc(-c2cnc3[nH]c(-c4cc(F)cc(C(N)=O)c4)nc3c2N2CC[C@@H](N)[C@H](OC)C2)c1` [Compound 50] the figure was over 10000 nM.
In the case of `COc1cc(F)cc(-c2cnc3[nH]c(-c4cccc(C#N)c4O)nc3c2N2CC[C@@H](N)[C@H](OC)C2)c1` [Compound 51], the EC50 is over 10000 nM.
As to `COc1cc(F)cc(-c2cnc3[nH]c(-c4cc(F)cc(C(=O)O)c4)nc3c2N2CC[C@@H](N)[C@H](OC)C2)c1` [Compound 52], the EC50 is over 10000 nM.
As for `CO[C@@H]1CN(c2c(-c3cc(C)cc(F)c3)cnc3[nH]c(-c4cc(F)cc(C(N)=O)c4)nc23)CC[C@H]1N` [Compound 53], the EC50 is 1000 nM.
Turning to `CO[C@@H]1CN(c2c(-c3cc(C)cc(F)c3)cnc3[nH]c(-c4cccc(C#N)c4O)nc23)CC[C@H]1N` [Compound 54], the EC50 is 2510 nM.
Take `CO[C@@H]1CN(c2c(-c3cc(C)cc(F)c3)cnc3[nH]c(-c4ccc5[nH]c(=O)[nH]c5c4)nc23)CC[C@H]1N` [Compound 55]: the EC50 was over 10000 nM.
With `COc1cc(F)cc(-c2cnc3[nH]c(-c4ccc5[nH]c(=O)[nH]c5c4)nc3c2N2CCC(N)CC2)c1` [Compound 56], the EC50 is 1580 nM.
In the case of `COc1cc(F)cc(-c2cnc3[nH]c(-c4cccc(Br)c4O)nc3c2N2CCC(N)CC2)c1` [Compound 57], the EC50 was 10 nM.
Turning to `COc1cc(F)cc(-c2cnc3[nH]c(-c4cc(F)cc(C(N)=O)c4)nc3c2N2CCC(N)CC2)c1` [Compound 58], the EC50 is 501 nM.
As to `COc1cc(F)cc(-c2cnc3[nH]c(-c4cccc(C#N)c4O)nc3c2N2CCC(N)CC2)c1` [Compound 59], the EC50 is 631 nM.
As to `Cc1cc(F)cc(-c2cnc3[nH]c(-c4cccc(Br)c4O)nc3c2N2CCC(N)CC2)c1` [Compound 60], the EC50 is 3.16 nM.
As for `Cc1cc(F)cc(-c2cnc3[nH]c(-c4cc(F)cc(C(N)=O)c4)nc3c2N2CCC(N)CC2)c1` [Compound 61], the EC50 is 50.1 nM.
Take `Cc1cc(F)cc(-c2cnc3[nH]c(-c4ccc5[nH]c(=O)[nH]c5c4)nc3c2N2CCC(N)CC2)c1` [Compound 62]: the EC50 is 631 nM.
Take `CC(C)(C)OC(=O)NC1CCN(c2c(-c3cc(F)cc(F)c3)cnc3nc(-c4cccc(Br)c4O)[nH]c23)CC1` [Compound 63]: the EC50 is over 10000 nM.
As for `NC1CCN(c2c(-c3cc(F)cc(F)c3)cnc3nc(-c4cccc(Br)c4O)[nH]c23)CC1` [Compound 64], the EC50 was 31.6 nM.
As to `NC(=O)c1cc(F)cc(-c2nc3c(N4CCC(N)CC4)c(-c4cc(F)cc(F)c4)cnc3[nH]2)c1` [Compound 65], the EC50 was 3160 nM.
On to `NC(=O)c1cccc2c1OCCCNC1CCN(CC1)c1c(-c3cc(F)cc(F)c3)cnc3ccc-2cc13` [Compound 67], for which the EC50 was 0.794 nM.
As to `Fc1cc(F)cc(-c2cnc3ccc4cc3c2N2CCC(CC2)NCCCCOc2cccc-4c2)c1` [Compound 68], the EC50 is 7.94 nM.
Turning to `Fc1cc(F)cc(-c2cnc3ccc4cc3c2N2CCC(CC2)NCCCCCOc2cccc-4c2)c1` [Compound 69], the EC50 is 1.26 nM.
Turning to `N#Cc1cccc2c1OCCOCCNC1CCN(CC1)c1c(-c3cc(F)cc(F)c3)cnc3ccc-2cc13` [Compound 70], the EC50 was 0.794 nM.
With `N#Cc1cccc2c1OCCCCCNC1CCN(CC1)c1c(-c3cc(F)cc(F)c3)cnc3ccc-2cc13` [Compound 71], the EC50 is 0.158 nM.
`Cc1cc(F)cc(-c2cnc3ccc4cc3c2N2CCC(CC2)NCCCCOc2c(C#N)cccc2-4)c1` [Compound 73]: the EC50 is 0.0251 nM.
With `Cc1cc(F)cc(-c2cnc3ccc4cc3c2N2CCC(CC2)NCCCCOc2c(C(N)=O)cccc2-4)c1` [Compound 74] the figure was 0.251 nM; with `NC(=O)c1cccc2c1OCCCCNC1CCN(CC1)c1c(-c3cc(F)cc(F)c3)cnc3ccc-2cc13` [Compound 75], 2 nM; with `Cc1cc(F)cc(-c2cnc3ccc4cc3c2N2CCC(CC2)NCCCCOc2ccccc2-4)c1` [Compound 76], 0.0794 nM.
In the case of `N#Cc1cccc2c1OCCO[C@H]1CN(CC[C@@H]1N)c1c(-c3cc(F)cc(F)c3)cnc3ccc-2cc13` [Compound 77], the EC50 is 6.31 nM.
With `O=C1NCCNC2CCN(CC2)c2c(-c3cc(F)cc(F)c3)cnc3ccc(cc23)-c2cccc1n2` [Compound 78, 23-(3,5-difluorophenyl)-4,7-diaza-2(6,4)-quinolina-1(2,6)-pyridina-3(1.4)-piperidina-cyclooctaphan-8-one] the figure was 2510 nM; with `O=C1NCCNC2CCN(CC2)c2c(-c3cc(F)cc(F)c3)cnc3ccc(cc23)-c2cccnc21` [Compound 79, 2^3-(3,5-difluorophenyl)-4,7-diaza-2(6,4)-quinolina-1(3,2)-pyridina-3(1,4)-piperidinacyclooctaphan-8-one], over 10000 nM.
With `O=C1NCCCNC2CCN(CC2)c2c(-c3cc(F)cc(F)c3)cnc3ccc(cc23)-c2cccc1n2` [Compound 80] the figure was 6.31 nM; with `CN1CCCCNC2CCN(CC2)c2c(-c3cc(F)cc(F)c3)cnc3ccc(cc23)-c2cccc(c2)C1=O` [Compound 81, 23-(3,5-difluorophenyl)-5-methyl-5, 10-diaza-2(4, 6)-quinolina-1(1, 4)-piperidina-3(1,3)-benzenacyclodecaphan-4-one], 2000 nM; with `CN1CCCCNC2CCN(CC2)c2c(-c3cc(F)cc(F)c3)cnc3ccc(cc23)-c2cccc(n2)C1=O` [Compound 82, 24-(3,5-difluorophenyl)-11-methyl-2,6,11,22,27-pentaazapentacyclo[16.6.2.2^2,^5.1^13,^17.0^21,^25]nonacosa-1(24),13(27),14,16,18(26),19,21(25),22-octaen-12-one], 25.1 nM.
As to `O=C1NCCCCNC2CCN(CC2)c2c(-c3cc(F)cc(F)c3)cnc3ccc(cc23)-c2cccnc21` [Compound 84], the EC50 is over 10000 nM.
With `CN1CCCCNC2CCN(CC2)c2c(-c3cc(F)cc(F)c3)cnc3ccc(cc23)-c2cccnc2C1=O` [Compound 85] the figure was 6310 nM; with `Cc1cc(F)cc(-c2cnc3ccc4cc3c2N2CCC(CC2)NCCCNC(=O)c2ccccc2-4)c1` [Compound 86], 6310 nM.
Turning to `Cc1cc(F)cc(-c2cnc3ccc4cc3c2N2CCC(CC2)NCCNC(=O)Oc2ccccc2-4)c1` [Compound 87, 23-(3-fluoro-5-methylphenyl)-4-oxa-6,9-diaza-2(4,6)-quinolina-1(1,4)-piperidina-3(1,2)-benzenacyclononaphan-5-one], the EC50 is 0.251 nM.
With `N#Cc1cccc2c1OCCC(CO)NC1CCN(CC1)c1c(-c3cc(F)cc(F)c3)cnc3ccc-2cc13` (stereo not drawn) [Compound 92], the EC50 was over 10000 nM.
As for `N#Cc1cccc2c1NCCCNC1CCN(CC1)c1c(-c3cc(F)cc(F)c3)cnc3ccc-2cc13` [Compound 93], the EC50 is 158 nM.
For the compound `Cc1cc(F)cc(-c2cnc3ccc4cc3c2N2CCC(CC2)NCC(N=[N+]=[N-])CCOc2c(C#N)cccc2-4)c1` (stereo not drawn) [Compound 94, 7-azido-23-(3-fluoro-5-methylphenyl)-4-oxa-9-aza-2(4.6)-quinolina-1(1.4)-piperidina-3(1,2)-benzenacyclononaphane-33-carbonitrile], the EC50 was 158 nM.
`Cc1cc(F)cc(-c2cnc3ccc4cc3c2N2CCC(CC2)NCC(N)CCOc2c(C#N)cccc2-4)c1` (stereo not drawn) [Compound 95, 7-amino-23-(3-fluoro-5-methylphenyl)-4-oxa-9-aza-2(4,6)-quinolina-1(1,4)-piperidina-3(1.2)-benzenacyclononaphane-33-carbonitrile]: the EC50 was 7.94 nM.
On to `Cc1cc(F)cc(-c2cnc(Cl)c(-c3nc4cc(F)c(F)cc4[nH]3)c2N2CCC(N)CC2)c1` [Compound 104, 1-(2-chloro-3-(5,6-difluoro-1H-benzo[d]imidazol-2-yl)-5-(3-fluoro-5-methylphenyl)pyridin-4-yl)piperidin-4-amine], for which the EC50 was 0.0794 nM.
With `NCCCn1c(=O)n2c3ccccc3cc2c2cncc(-c3cc(F)cc(F)c3)c21` [Compound 105, 5-(3-aminopropyl)-4-(3,5-difluorophenyl)pyrido[4′,3′:4,5]pyrimido [1,6-a]indol-6(5H)-one] the figure was over 10000 nM.
As to `CNCCCn1c(=O)n2c3cc(F)c(F)cc3nc2c2cncc(-c3cc(F)cc(F)c3)c21` [Compound 106, 4-(3,5-difluorophenyl)-9,10-difluoro-5-(3-(methylamino)propyl) benzo[4,5]imidazo[1,2-c]pyrido[3,4-e]pyrimidin-6(5H)-one], the EC50 was 2000 nM.
In the case of `Cc1cc(F)cc(-c2cnc3c(c2N2CCC(N)CC2)-c2nc4cc(F)c(F)cc4n2CC3)c1` [Compound 107, 1-(9,10-difluoro-2-(3-fluoro-5-methylphenyl)-5,6-dihydrobenzo [4,5]imidazo[2,1-f][1,6]naphthyridin-1-yl)piperidin-4-amine], the EC50 is over 79.4 nM.
For the compound `NCCCN1Cc2ccc(F)cc2-c2cncc(-c3nc4cc(F)c(F)cc4[nH]3)c21` [Compound 108], the EC50 is 126 nM.

A word on the EC50: it is the concentration at which the effect is half-maximal.
